# Assay results as given in patent US20080254080A1, “Novel Uses of Calcium Hydroxide” (priority 2004, published 2008).
# Assays:
# H5N1 virus = settings: cited from earlier work
# [1] = system: warts, toe and foot fungus, skin tags; assay: Topical use of hydrated lime; settings: in vivo
# [2] = system: different bacterial strains including Bacillus subtilis; settings: agar diffusion; hydrated spores; cited from earlier work
SMILES,susceptibility of H5N1 virus currently infecting birds in Asia (H5N1 virus),"removal of warts, toe and foot fungus, skin tags [1]","antimicrobial activity compared with the other antimicrobial agents (MTA, Portland cement, Sealapex, Dycal) [2]"
NC12CC3CC(CC(C3)C1)C2 [amantadine],resistant,,
[Ca+2].[OH-].[OH-] [calcium hydroxide],,"shown to remove warts, toe and foot fungus, skin tags",superior
CC(N)C12CC3CC(CC(C3)C1)C2 (stereo not shown) [rimantadine],resistant,,
